IC50 data for 19 compounds are collected here from patent US20230023559A1, “ARYLMETHYLENE HETEROCYCLIC COMPOUNDS AS KV1.3 POTASSIUM SHAKER CHANNEL BLOCKERS” (D. E. Shaw Research, LLC, priority 2019, published 2023).

One assay has as its target T1, Kv1.3 potassium channel (Homo sapiens, UniProt P22001).
T1 construct: expressed in transfected cells
The experiment in a line: Kv1.3 potassium channel blocker activity, automated whole-cell patch clamp (Patchliner). The assay is classed as cell-based. Conditions: CHO-K1 cells stably expressing Kv1.3; whole cell current inhibition; read-out: Kv1.3_IC50. The essentials: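 Peak-current block was recorded on stable Kv1.3 CHO-K1 cells by automated patch clamp, stepping from a −90 mV holding potential to +40 mV for 100 ms at 0.1 Hz with 10 s breaks between trains. Online P/4 leak subtraction, 10 kHz sampling; compound exposure under 10 s per train.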

A further assay concerns the target hERG channel (Homo sapiens, UniProt Q12809). The experiment in a line: hERG electrophysiology, automated whole-cell patch clamp (Patchliner).

Bounds are passed on as bounds.

T1 sequence (P22001 whole entry): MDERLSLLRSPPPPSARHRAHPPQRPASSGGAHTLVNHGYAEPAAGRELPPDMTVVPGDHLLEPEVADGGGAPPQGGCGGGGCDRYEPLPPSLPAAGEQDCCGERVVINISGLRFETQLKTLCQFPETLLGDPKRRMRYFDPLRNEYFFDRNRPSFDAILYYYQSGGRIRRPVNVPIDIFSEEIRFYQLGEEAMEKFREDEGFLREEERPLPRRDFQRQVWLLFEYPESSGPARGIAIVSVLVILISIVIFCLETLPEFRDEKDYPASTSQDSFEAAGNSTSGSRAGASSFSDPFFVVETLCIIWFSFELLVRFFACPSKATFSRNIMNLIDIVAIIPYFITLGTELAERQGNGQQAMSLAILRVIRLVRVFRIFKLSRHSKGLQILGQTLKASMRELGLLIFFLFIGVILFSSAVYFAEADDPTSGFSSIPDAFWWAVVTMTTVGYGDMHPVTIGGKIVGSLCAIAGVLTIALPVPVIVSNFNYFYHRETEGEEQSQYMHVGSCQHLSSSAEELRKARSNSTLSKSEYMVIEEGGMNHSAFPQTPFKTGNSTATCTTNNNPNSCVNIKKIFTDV
Chain of hERG channel (Q12809 whole entry): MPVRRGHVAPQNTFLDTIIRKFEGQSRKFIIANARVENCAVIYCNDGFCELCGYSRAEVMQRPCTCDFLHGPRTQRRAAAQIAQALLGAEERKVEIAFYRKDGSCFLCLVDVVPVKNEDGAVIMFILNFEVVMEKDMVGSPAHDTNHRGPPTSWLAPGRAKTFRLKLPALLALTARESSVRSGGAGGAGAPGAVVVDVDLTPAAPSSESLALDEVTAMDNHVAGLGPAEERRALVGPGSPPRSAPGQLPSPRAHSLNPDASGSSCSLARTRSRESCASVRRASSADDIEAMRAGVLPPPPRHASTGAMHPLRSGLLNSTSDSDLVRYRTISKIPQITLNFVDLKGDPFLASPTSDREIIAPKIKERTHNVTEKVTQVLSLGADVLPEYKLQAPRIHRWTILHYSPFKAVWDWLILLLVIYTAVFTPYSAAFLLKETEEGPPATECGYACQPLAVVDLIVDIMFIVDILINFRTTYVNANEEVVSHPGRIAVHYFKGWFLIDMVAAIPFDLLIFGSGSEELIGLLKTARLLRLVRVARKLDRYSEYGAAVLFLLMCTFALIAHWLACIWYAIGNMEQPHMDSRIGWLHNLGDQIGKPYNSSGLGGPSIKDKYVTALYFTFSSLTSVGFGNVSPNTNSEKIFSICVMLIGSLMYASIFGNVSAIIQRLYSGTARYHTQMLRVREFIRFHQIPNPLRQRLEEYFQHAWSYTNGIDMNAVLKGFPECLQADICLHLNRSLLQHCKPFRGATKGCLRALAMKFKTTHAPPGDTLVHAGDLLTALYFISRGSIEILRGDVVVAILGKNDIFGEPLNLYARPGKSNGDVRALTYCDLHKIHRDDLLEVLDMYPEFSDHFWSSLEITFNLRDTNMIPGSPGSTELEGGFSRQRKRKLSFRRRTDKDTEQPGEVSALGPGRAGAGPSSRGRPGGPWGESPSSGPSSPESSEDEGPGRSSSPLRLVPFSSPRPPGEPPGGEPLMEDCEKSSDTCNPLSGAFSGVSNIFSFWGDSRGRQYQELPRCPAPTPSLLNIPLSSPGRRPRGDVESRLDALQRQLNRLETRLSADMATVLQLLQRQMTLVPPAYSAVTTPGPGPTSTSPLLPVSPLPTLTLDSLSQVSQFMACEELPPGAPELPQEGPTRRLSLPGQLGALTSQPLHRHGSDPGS
Method for hERG channel: CHO-K1 cells stably expressing hERG were grown in Ham's F-12 Medium with Glutamine containing 10% heat-inactivated FBS, 1% Penicillin/Streptomycin, Hygromycin (100 μg/ml) and G418 (100 μg/ml). Cells were grown in culture flasks at 37° C. in a 5% CO2-humidified incubator.
The cells were bathed in an extracellular solution containing 140 mM NaCl, 4 mM KCl, 2 mM CaCl2), 1 mM MgCl2, 5 mM Glucose, 10 mM HEPES; pH adjusted to 7.4 with NaOH; 295-305 mOsm. The internal solution contained 50 mM KCl, 10 mM NaCl, 60 mM KF, 20 mM EGTA, 10 mM HEPES; pH adjusted to 7.2 with KOH; 285 mOsm. All compounds were dissolved in DMSO at 30 mM. Compound stock solutions were freshly diluted with external solution to concentrations of 30 nM, 100 nM, 300 nM, 1 μM, 3 μM, 10 μM, 30 μM and 100 μM. The highest content of DMSO (0.3%) was present in 100 μM.
The voltage protocol (see Table B) was designed to simulate voltage changes during a cardiac action potential with a 300 ms depolarization to +20 mV (analogous to the plateau phase of the cardiac action potential), a repolarization for 300 ms to −50 mV (inducing a tail current) and a final step to the holding potential of −80 mV. The pulse frequency was 0.3 Hz. Control (compound-free) and compound pulse trains for each compound concentration applied contained 70 pulses.
Whole cell current recordings and compound application were enabled by means of an automated patch clamp platform Patchliner (Nanion). EPC 10 patch clamp amplifier (HEKA) along with Patchmaster software (HEKA Elektronik Dr. Schulze GmbH) was used for data acquisition. Data were sampled at 10 kHz without filtering. Increasing compound concentrations were applied consecutively to the same cell without washouts in between.
AUC and PEAK values were obtained with Patchmaster (HEKA Elektronik Dr. Schulze GmbH). To determine IC50 the last single pulse in the pulse train corresponding to a given compound concentration was used. Obtained AUC and PEAK values in the presence of compound were normalized to control values in the absence of compound. Using Origin (OridinLab), IC50 was derived from data fit to Hill equation: Icompound/Icontrol=(100−A)/(1+([compound]/IC50)nH)+A, where IC50 is the concentration at which current inhibition is half-maximal, [compound] is the applied compound concentration, A is the fraction of current that is not blocked and nH is the Hill coefficient.

Consider `N[C@@H](c1cc(Cl)c(Cl)cc1O)C1CCN(S(=O)(=O)[C@@H]2CCNC2)CC1` (single isomer, unassigned; isomer 1) [Compound 112], for which the figures for the IC50 at Kv1.3 potassium channel and against hERG channel were under 0.5 µM and over 30 µM, respectively.

Turning to `NC(=O)N1CCC([C@H](N)c2cc(Cl)c(Cl)cc2O)CC1` (single isomer, unassigned) [Compound 81], the 50% inhibitory concentration (IC50) – broadly, the point on the concentration scale where inhibition reaches its midpoint – on Kv1.3 potassium channel was under 0.5 µM; against hERG channel it was over 30 µM.

`Cc1cc(O)c([C@H](N)C2CCN(C(=O)[C@H](O)CO)CC2)c(F)c1Cl` [Compound 244, (2R)-1-[4-[(R)-amino(3-chloro-2-fluoro-6-hydroxy-4-methylphenyl)methyl]piperidin-1-yl]-2,3-dihydroxypropan-1-one]: the IC50 on Kv1.3 potassium channel was under 0.5 µM; against hERG channel, over 30 µM.

Take `N[C@@H](c1cc(Cl)c(Cl)cc1O)C1CCN(C(=O)[C@H]2COCCN2)CC1` [Compound 194, (4-((R)-amino(4,5-dichloro-2-hydroxyphenyl)methyl)piperidin-1-yl)((R)-morpholin-3-yl)methanone]: the 50% inhibitory concentration (IC50) at Kv1.3 potassium channel was under 0.5 µM; on hERG channel, over 30 µM.

Consider `C[C@H]1C[C@H]([C@@H](N)c2cc(Cl)c(Cl)cc2O)CCN1C(=O)[C@H](O)CO` [Compound 326, (2R)-1-[(2S,4R)-4-[(R)-amino(4,5-dichloro-2-hydroxyphenyl)methyl]-2-methylpiperidin-1-yl]-2,3-dihydroxypropan-1-one Trifluoroacetic Acid], for which the IC50 at Kv1.3 potassium channel is under 0.5 µM; against hERG channel, over 30 µM.

For the compound `C[C@@H](O)[C@H](N)C(=O)N1CCC([C@@H](N)c2cc(Cl)c(Cl)cc2O)CC1` [Compound 174, (2S,3R)-2-amino-1-[4-[(R)-amino(4,5-dichloro-2-hydroxyphenyl)methyl]piperidin-1-yl]-3-hydroxybutan-1-one bis (trifluoroacetic acid)], the half-inhibitory concentration (IC50) on Kv1.3 potassium channel was under 10 µM; on hERG channel, over 30 µM.

With `N[C@@H](c1cc(Cl)c(Cl)cc1O)C1CCN(C(=O)[C@@H]2OCC[C@@H]2O)CC1` [Compound 260, (2R,3S)-2-[4-[(R)-amino(4,5-dichloro-2-hydroxyphenyl)methyl]piperidine-1-carbonyl]oxolan-3-ol Trifluoroacetic Acid], the IC50 was under 0.5 µM on Kv1.3 potassium channel and over 30 µM against hERG channel.

Take `Cc1cc(O)c([C@H](N)C2CCN(C(=O)c3c[nH]c(=O)cc3Cl)CC2)cc1Cl` [Compound 245, 5-[4-[(R)-amino (5-chloro-2-hydroxy-4-methylphenyl)methyl]piperidine-1-carbonyl]-4-chloro-1H-pyridin-2-one trifluoroacetic acid]: the IC50 is under 0.5 µM on Kv1.3 potassium channel and over 30 µM on hERG channel.

Turning to `N[C@@H](c1cc(Cl)c(Cl)cc1O)C1CCN(C(=O)c2ccn[nH]2)CC1` [Compound 136, 2-[(R)-amino[1-(1H-pyrazole-3-carbonyl)piperidin-4-yl]methyl]-4,5-dichlorophenol trifluoroacetic acid], the figures for the half-maximal inhibitory concentration (IC50) on Kv1.3 potassium channel and on hERG channel were under 10 µM and over 30 µM, respectively.

For the compound `Cn1cc(C(=O)N2CCC([C@@H](N)c3cc(Cl)c(Cl)cc3O)CC2)ncc1=O` [Compound 298, 5-[4-[(R)-amino(4,5-dichloro-2-hydroxyphenyl)methyl]piperidine-1-carbonyl]-1-methylpyrazin-2-one Trifluoroacetic Acid], the results for the IC50 on Kv1.3 potassium channel and against hERG channel were under 0.5 µM and under 30 µM, respectively.

On to `Cc1cc(O)c([C@H](N)C2CCN(C(=O)c3ccc(=O)n(CCO)c3)CC2)cc1Cl` [Compound 249, 5-[4-[(R)-amino (5-chloro-2-hydroxy-4-methylphenyl)methyl]piperidine-1-carbonyl]-1-(2-hydroxyethyl) pyridin-2-one trifluoroacetic acid], for which the concentration for half-maximal inhibition (IC50) at Kv1.3 potassium channel is under 0.5 µM; against hERG channel, over 30 µM.

`N[C@@H](c1cc(Cl)c(Cl)cc1O)C1CCN(C(=O)C2(O)CNC2)CC1` [Compound 219, 3-[4-[(R)-amino(4,5-dichloro-2-hydroxyphenyl)methyl]piperidine-1-carbonyl]azetidin-3-ol Trifluoroacetic Acid]: the 50% inhibitory concentration (IC50) at Kv1.3 potassium channel was under 0.5 µM; against hERG channel it was over 30 µM.

Turning to `C[C@H]1CN(C(=O)[C@H](O)CO)CC[C@H]1[C@@H](N)c1cc(Cl)c(Cl)cc1O` (single isomer, unassigned; isomer 2) [Compound 332], the figures for the 50% inhibitory concentration (IC50) on Kv1.3 potassium channel and at hERG channel were under 0.5 µM and over 30 µM, respectively.

Turning to `NC(c1cc(Cl)c(Cl)cc1O)C1CCN(c2ccccn2)CC1` (centres unmarked) [Compound 70, 2-[amino[1-(pyridin-2-yl)piperidin-4-yl]methyl]-4,5-dichlorophenol Trifluoroacetic Acid], the figures for the half-maximal inhibitory concentration (IC50) on Kv1.3 potassium channel and on hERG channel were under 0.5 µM and under 30 µM, respectively.

In the case of `Cc1[nH]ncc1C(=O)N1CCC([C@@H](N)c2cc(Cl)c(Cl)cc2O)CC1` [Compound 153, 2-[(R)-amino[1-(3-methyl-1H-pyrazole-4-carbonyl)piperidin-4-yl]methyl]-4,5-dichlorophenol trifluoroacetic acid], the IC50 on Kv1.3 potassium channel is under 0.5 µM; against hERG channel, over 30 µM.

Regarding `N[C@@H](c1cc(Cl)c(Cl)cc1O)C1CCN(c2cc[nH]c(=O)c2)CC1` [Compound 180, 4-[4-[(R)-amino(4,5-dichloro-2-hydroxyphenyl)methyl]piperidin-1-yl]-1,2-dihydropyridin-2-one Trifluoroacetic Acid], the IC50 on Kv1.3 potassium channel was under 0.5 µM; against hERG channel, over 30 µM.

On to `NC(c1cc(Cl)c(Cl)cc1O)C1CCN(S(=O)(=O)N2CCCC2)CC1` (centres unmarked) [Compound 45, 2-(amino(1-(pyrrolidin-1-ylsulfonyl)piperidin-4-yl)methyl)-4,5-dichlorophenol Trifluoroacetic Acid], for which the IC50 is under 10 µM on Kv1.3 potassium channel and under 30 µM on hERG channel.

On to `N[C@@H](c1cc(Cl)c(Cl)cc1O)C1CCN(C(=O)[C@@H]2CNC(=O)C2)CC1` [Compound 224, (4S)-4-[4-[(R)-amino(4,5-dichloro-2-hydroxyphenyl)methyl]piperidine-1-carbonyl] pyrrolidin-2-one trifluoroacetic acid], for which the IC50 on Kv1.3 potassium channel was under 0.5 µM; against hERG channel, over 30 µM.

In the case of `CC(C)(CO)C(=O)N1CCC([C@@H](N)c2cc(Cl)c(Cl)cc2O)CC1` [Compound 142, 1-[4-[(R)-amino(4,5-dichloro-2-hydroxyphenyl)methyl]piperidin-1-yl]-3-hydroxy-2,2-dimethylpropan-1-one trifluoroacetic acid], the IC50 on Kv1.3 potassium channel is under 10 µM; against hERG channel, under 30 µM.
